Measured values as given in ChEMBL document CHEMBL1140124, “Triterpenoids from the leaves of Diospyros kaki (persimmon) and their inhibitory effects on protein tyrosine phosphatase 1B” (J Nat Prod, 2008).

The compounds below were run against T1, Tyrosine-protein phosphatase non-receptor type 1 (Homo sapiens, UniProt P18031) (assay: Inhibition of human recombinant PTP1B after 30 mins).
T1 sequence (P18031 whole entry): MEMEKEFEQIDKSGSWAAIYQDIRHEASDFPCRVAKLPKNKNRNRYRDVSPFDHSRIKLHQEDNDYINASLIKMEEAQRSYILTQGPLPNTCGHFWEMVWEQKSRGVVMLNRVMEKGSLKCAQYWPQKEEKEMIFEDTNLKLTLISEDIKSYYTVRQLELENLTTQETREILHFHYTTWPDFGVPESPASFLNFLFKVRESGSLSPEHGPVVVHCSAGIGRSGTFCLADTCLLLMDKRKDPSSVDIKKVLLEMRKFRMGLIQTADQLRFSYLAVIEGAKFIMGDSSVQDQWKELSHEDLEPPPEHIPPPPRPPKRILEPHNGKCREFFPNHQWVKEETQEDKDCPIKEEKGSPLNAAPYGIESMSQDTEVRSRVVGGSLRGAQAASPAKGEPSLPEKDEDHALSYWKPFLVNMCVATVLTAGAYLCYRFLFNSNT

Row | IC50 [µM] | SMILES
1 | 8.1 | C[C@@H]1CC[C@]2(C(=O)O)CC[C@]3(C)C(=CC[C@@H]4[C@@]5(C)CCC(=O)[C@](C)(CO)[C@@H]5CC[C@]43C)[C@@H]2[C@]1(C)O
2 | 12.8 | C[C@H]1[C@H](C)CC[C@]2(C(=O)O)CC[C@]3(C)C(=CC[C@@H]4[C@@]5(C)CC[C@H](O)[C@](C)(CO)[C@@H]5CC[C@]43C)[C@H]12
3 | > 30 | C[C@@H]1CC[C@]2(C(=O)O)CC[C@]3(C)C(=CC[C@@H]4[C@@]5(C)CC[C@@H](O)[C@](C)(CO)[C@@H]5CC[C@]43C)[C@@H]2[C@]1(C)O [BARBINERVIC ACID]
4 | > 30 | C=C1CC[C@]2(C(=O)O)CC[C@]3(C)C(=CC[C@@H]4[C@@]5(C)CC[C@@H](O)[C@](C)(CO)[C@@H]5CC[C@]43C)[C@@H]2[C@]1(C)O [COUSSARIC ACID]
5 | > 30 | C=C1CC[C@]2(C(=O)O)CC[C@]3(C)C(=CC[C@@H]4[C@@]5(C)CC[C@@H](O)[C@](C)(C(=O)O)[C@@H]5CC[C@]43C)[C@@H]2[C@]1(C)O [DIOSPYRIC ACID A]
6 | > 30 | C[C@@H]1CC[C@]2(C(=O)O)CC[C@]3(C)C(=CC[C@@H]4[C@@]5(C)CC[C@@H](O)[C@](C)(C(=O)O)[C@@H]5CC[C@]43C)[C@@H]2[C@]1(C)O [DIOSPYRIC ACID B]
7 | 3.5 | CC1(C)CC[C@]2(C(=O)O)CC[C@]3(C)C(=CC[C@@H]4[C@@]5(C)CCC(=O)C(C)(C)[C@@H]5CC[C@]43C)[C@@H]2C1 [OLEANONIC ACID]
8 | 10.9 | C[C@@H]1CC[C@]2(C(=O)O)CC[C@]3(C)C(=CC[C@@H]4[C@@]5(C)CC[C@H](O)[C@](C)(CO)[C@@H]5CC[C@]43C)[C@@H]2[C@]1(C)O [ROTUNGENIC ACID]

The remaining lines, values behind:

Row | SMILES | IC50 [µM]
9 | CCCCCCCCCCCCCCCC(=O)C1=C(O)[C@@H](CO)OC1=O | 4.1
10 | C[C@@]1(CO)CC[C@]2(C(=O)O)CC[C@]3(C)C(=CC[C@@H]4[C@@]5(C)CC[C@@H](O)[C@](C)(CO)[C@@H]5CC[C@]43C)[C@@H]2C1 | > 30
11 | C[C@H]1[C@H](C)CC[C@]2(C(=O)O)CC[C@]3(C)C(=CC[C@@H]4[C@@]5(C)CC[C@@H](O)[C@](C)(CO)[C@@H]5CC[C@]43C)[C@H]12 | > 30
12 | C[C@@H]1CC[C@]2(C(=O)O)CC[C@]3(C)C(=CC[C@@H]4[C@@]5(C)CC[C@H](O)C(C)(C)[C@@H]5CC[C@]43C)[C@@H]2[C@]1(C)O [POMOLIC ACID] | 3.9
13 | CC1(C)CC[C@]2(C(=O)O)CC[C@]3(C)C(=CC[C@@H]4[C@@]5(C)CC[C@@H](O)[C@](C)(CO)[C@@H]5CC[C@]43C)[C@@H]2C1 [SCUTELLARIC ACID] | > 30
14 | CC1(C)CC[C@]2(C(=O)O)CC[C@]3(C)C(=CC[C@@H]4[C@@]5(C)CC[C@H](O)[C@](C)(CO)[C@@H]5CC[C@]43C)[C@@H]2[C@@H]1O [SPATHODIC ACID] | 18.8
